Results taken from PubChem BioAssay AID1963872 (Molecular Pharmacology Branch, DTP, NCI, 2024).

Tested on: KRAS patient-derived spheroids with HUVEC/MSC, viability
Experiment: Anticancer human tumor 519858-162-T-J1-PDC patient-derived colon adenocarcinoma cell line growth inhibition [KRAS2]
Conditions: for viability, T/C: stronger effect = lower value
From the text: Multicellular complex tumor spheroid response to RAS pathway inhibitors in combination with a targeted agents in patient-derived cell lines with oncogenic KRAS variants from multiple cancer types
A high-throughput screen of multi-cell type tumor spheroids was designed to identify active combinations of targeted small molecules and KRAS pathway inhibitors. Complex spheroids include a stromal component modeled by human endothelial cells (HUVEC) and fibroblasts modeled by human mesenchymal stem cells (MSCs). The concentration ranges selected for each drug and investigational agent were based upon clinically achievable concentrations if the clinical Cmax of the agent was known.
Compounds. The drugs and investigational agents: BI-3406 (NSC825286), BAY-293 (NSC824723), batoprotafib (TNO155; NSC825523), sotorasib (AMG 510; NSC818433), MRTX1257 (NSC819558), elimusertib (BAY 1895344; NSC800525), molibresib (GSK525762; NSC774829), temuterkib (LY3214996; NSC803410), venetoclax (NSC766270), alisertib (NSC759677), olaparib (NSC753686), talazoparib (NSC767125), erdafitinib (NSC781556), ipatasertib (NSC767898), cabozantinib (NSC761068), nintedanib (NSC756659), abemaciclib (NSC768073), docetaxel (NSC628503), trametinib (NSC758246), and sapanisertib (NSC764658) were obtained from the National Cancer Institute (NCI) Developmental Therapeutics Program Chemical Repository. The FDA-approved anticancer drug set is available from the Developmental Therapeutics Program. […] The stock solutions were prepared in dimethyl sulfoxide (DMSO, Sigma-Aldrich, St. Louis, MO, cat. D2650) at 800-fold the tested concentration and stored at -70 degrees C prior to their use. All drugs and investigational agents were tested over a range starting from a high concentration at or near the clinical Cmax and decreasing in half-log increments. If the clinical Cmax for an agent had not been determined, the highest concentration tested was 10 microM.
Cell Culture. All cells were maintained in an incubator at 37 degrees C and 5% CO2 with 95% humidity. The PDC lines were cultured according to standard operating procedures established by the NCI PDMR (https://pdmr.cancer.gov/sops/default.htm). Briefly, all PDCs were thawed and cultured in Matrigel-coated flasks prepared with a working solution of 1X Ham's F-12 nutrient mix, without supplementation (Invitrogen, Waltham, MA, cat. 11765054), 100 U/mL penicillin-streptomycin (Invitrogen, cat. 15140122), and 2.5% Matrigel (Corning Inc., Corning, NY, cat. 354248) for the first three passages. All PDCs were cultured in complete DMEM/F-12 media containing advanced DMEM/F-12 (Invitrogen, cat. 12634028), 4.9% defined fetal bovine serum, heat inactivated (HyClone Laboratories Inc., Logan, UT, cat. SH30070.03HI), 389 ng/mL hydrocortisone (Sigma-Aldrich, cat. H4001), 9.7 ng/mL human EGF recombinant protein (Invitrogen, cat. PHG0313), 23.4 microg/mL adenine (Sigma-Aldrich, cat. A2786), 97.3 U/mL penicillin-streptomycin (Invitrogen, cat. 15140122), 1.9 mM L-glutamine (Invitrogen, cat. 25030081), and 9.7 microM Y-27632 dihydrochloride (Tocris Bioscience, Bristol, United Kingdom, cat. 1254). The PDCs were cultured in complete DMEM/F12 media without 9.7 microM Y-27632 dihydrochloride for at least two passages prior to the screen. The established cell line HOP-62 was cultured in RPMI 1640 medium, HEPES (Invitrogen, cat. 22400105) with 10% defined fetal bovine serum (HyClone Laboratories Inc., cat. SH30070.03) and 2 mM L-glutamine (Invitrogen, cat. 25030081). The pooled donor HUVEC were cultured in endothelial cell growth medium 2 (PromoCell, Heidelberg, Germany, cat. C-22011) and the hMSC were cultured in mesenchymal stem cell growth medium 2 (PromoCell, cat. C-28009). For all experiments, HUVEC and hMSC were used at passages </=5, while the malignant cell lines were used at passages </=15. […]

[1] = curve of first compound, second compound 0.1 µM
[2] = curve of first compound, second compound 0.316 µM
[3] = curve of first compound, second compound 1 µM
[4] = curve of first compound, second compound 3.16 µM
[5] = curve of first compound, second compound 10 µM
[6] = second compound 0.1 µM, first compound 0.0316 µM
[7] = second compound 0.1 µM, first compound 0.1 µM
[8] = second compound 0.1 µM, first compound 0.316 µM
[9] = second compound 0.1 µM, first compound 1 µM
[10] = second compound 0.1 µM, first compound 3.16 µM
[11] = second compound 0.1 µM, first compound 10 µM
[12] = second compound 0.316 µM, first compound 0.0316 µM
[13] = second compound 0.316 µM, first compound 0.1 µM
[14] = second compound 0.316 µM, first compound 0.316 µM
[15] = second compound 0.316 µM, first compound 1 µM
[16] = second compound 0.316 µM, first compound 3.16 µM
[17] = second compound 0.316 µM, first compound 10 µM
[18] = second compound 1 µM, first compound 0.0316 µM
[19] = second compound 1 µM, first compound 0.1 µM
[20] = second compound 1 µM, first compound 0.316 µM
[21] = second compound 1 µM, first compound 1 µM
[22] = second compound 1 µM, first compound 3.16 µM
[23] = second compound 1 µM, first compound 10 µM
[24] = second compound 3.16 µM, first compound 0.0316 µM
[25] = second compound 3.16 µM, first compound 0.1 µM
[26] = second compound 3.16 µM, first compound 0.316 µM
[27] = second compound 3.16 µM, first compound 1 µM
[28] = second compound 3.16 µM, first compound 3.16 µM
[29] = second compound 3.16 µM, first compound 10 µM
[30] = second compound 10 µM, first compound 0.0316 µM
[31] = second compound 10 µM, first compound 0.1 µM
[32] = second compound 10 µM, first compound 0.316 µM
[33] = second compound 10 µM, first compound 1 µM
[34] = second compound 10 µM, first compound 3.16 µM
[35] = second compound 10 µM, first compound 10 µM
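Note: compound exposure lasted seven days before readout.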
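Throughout, for viability, T/C: 100% = DMSO vehicle control viability.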

Row | SMILES | IC50 [1] [µM] | IC50 [2] [µM] | IC50 [3] [µM] | IC50 [4] [µM] | viability, T/C [6] [%] | viability, T/C [7] [%] | viability, T/C [8] [%] | viability, T/C [9] [%] | viability, T/C [12] [%] | viability, T/C [13] [%] | viability, T/C [14] [%] | viability, T/C [15] [%] | viability, T/C [18] [%] | viability, T/C [19] [%] | viability, T/C [20] [%] | viability, T/C [21] [%] | viability, T/C [24] [%] | viability, T/C [25] [%] | viability, T/C [26] [%] | viability, T/C [27] [%] | also measured
1 | COc1cc(Nc2ncc3c(n2)-c2ccc(Cl)cc2C(c2c(F)cccc2OC)=NC3)ccc1C(=O)O + CC1OCC2(CCN(c3cnc(Sc4ccnc(N)c4Cl)c(N)n3)CC2)C1N | > 10 | > 10 | > 10 | 0.0316 | 84.6 | 67.9 | 77.1 | 63.4 | 69.3 | 62.8 | 88.1 | 75.7 | 60.4 | 58.7 | 57.9 | 49.7 | 55.4 | 58 | 45.7 | 42.9 | IC50 [5]: > 10 µM; viability, T/C [10]: 62%; viability, T/C [11]: 73.3%; viability, T/C [16]: 63%; viability, T/C [17]: 89%; viability, T/C [22]: 66.5%; viability, T/C [23]: 111%; viability, T/C [28]: 71.2%; viability, T/C [29]: 71.1%; viability, T/C [30]: 73%; viability, T/C [31]: 48.9%; viability, T/C [32]: 49.5%; viability, T/C [33]: 53.4%; viability, T/C [34]: 74.9%; viability, T/C [35]: 78%
2 | CCNC(=O)CC1N=C(c2ccc(Cl)cc2)c2cc(OC)ccc2-n2c(C)nnc21 (configuration not stated) |  |  |  |  |  |  |  |  |  |  |  |  |  |  |  |  |  |  |  |  | viability, T/C (compound 1 µM): 52.7% [middle of 5 runs]; IC50 (curve of compound): 1.08 µM [middle of 4 runs]
3 | COc1cc2nccc(Oc3ccc(NC(=O)C4(C(=O)Nc5ccc(F)cc5)CC4)cc3)c2cc1OC + CNCc1ccccc1-c1csc(C(C)Nc2nc(C)nc3cc(OC)c(OC)cc23)c1 | > 10 | > 10 | > 10 | 3.46 | 92.8 | 93.2 | 81.7 | 94 | 91.4 | 96.5 | 88 | 90.1 | 67.1 | 81.8 | 61.6 | 50.1 | 39.9 | 55.6 | 44.5 | 38.1 | IC50 [5]: < 0.0316 µM; viability, T/C [10]: 107%; viability, T/C [11]: 146%; viability, T/C [16]: 98.1%; viability, T/C [17]: 132%; viability, T/C [22]: 106%; viability, T/C [23]: 100%; viability, T/C [28]: 95%; viability, T/C [29]: 0.54%; viability, T/C [30]: 1.01%; viability, T/C [31]: 0.42%; viability, T/C [32]: 0.68%; viability, T/C [33]: 1.44%; viability, T/C [34]: 0.37%; viability, T/C [35]: 0.36%
4 | CCN1CCN(Cc2ccc(Nc3ncc(F)c(-c4cc(F)c5nc(C)n(C(C)C)c5c4)n3)nc2)CC1 + C=CC(=O)N1CCN(c2nc(=O)n(-c3c(C)ccnc3C(C)C)c3nc(-c4c(O)cccc4F)c(F)cc23)C(C)C1 | > 1 | > 1 | > 1 | 0.742 | 71.9 | 72.4 | 78.6 | 59.3 | 79.2 | 62.2 | 66 | 49.2 | 83.6 | 60.4 | 72.8 | 50.4 | 69.3 | 73.9 | 64.6 | 44.6 | IC50 [5]: 0.265 µM; viability, T/C (second compound 0.1 µM, first compound 0.00316 µM): 83%; viability, T/C (second compound 0.1 µM, first compound 0.01 µM): 67.4%; viability, T/C (second compound 0.316 µM, first compound 0.00316 µM): 98.6%; viability, T/C (second compound 0.316 µM, first compound 0.01 µM): 96.5%; viability, T/C (second compound 1 µM, first compound 0.00316 µM): 61.9%; viability, T/C (second compound 1 µM, first compound 0.01 µM): 111%; viability, T/C (second compound 3.16 µM, first compound 0.00316 µM): 84.2%; viability, T/C (second compound 3.16 µM, first compound 0.01 µM): 93.7%; viability, T/C (second compound 10 µM, first compound 0.00316 µM): 109%; viability, T/C (second compound 10 µM, first compound 0.01 µM): 97.7%; viability, T/C [30]: 51.8%; viability, T/C [31]: 75.7%; viability, T/C [32]: 60.5%; viability, T/C [33]: 23.4%
5 | Cn1nccc1Nc1nccc(-c2cc3c(s2)C(C)(C)N(CCN2CCOCC2)C3=O)n1 + C=CC(=O)N1CCN(c2nc(OCC3CCCN3C)nc3c2CCN(c2cccc4cccc(C)c24)C3)CC1CC#N | 3.03 | 1.69 | 0.693 | < 0.0316 | 76.3 | 87.3 | 94.7 | 60.1 | 77.7 | 74.7 | 72 | 53.3 | 71.6 | 57.1 | 54 | 53 | 47.6 | 54.6 | 39.8 | 30 | IC50 (curve of first compound, second compound 0.0316 µM): 4.03 µM; viability, T/C (second compound 0.0316 µM, first compound 0.0316 µM): 78.1%; viability, T/C (second compound 0.0316 µM, first compound 0.1 µM): 75.3%; viability, T/C (second compound 0.0316 µM, first compound 0.316 µM): 82.8%; viability, T/C (second compound 0.0316 µM, first compound 1 µM): 68.4%; viability, T/C (second compound 0.0316 µM, first compound 3.16 µM): 56.6%; viability, T/C (second compound 0.0316 µM, first compound 10 µM): 28.1%; viability, T/C [10]: 53.7%; viability, T/C [11]: 25.3%; viability, T/C [16]: 44.8%; viability, T/C [17]: 32.8%; viability, T/C [22]: 36.7%; viability, T/C [23]: 27.1%; viability, T/C [28]: 41.5%; viability, T/C [29]: 17.6%
